# Earlier results as cited in US20060009430A1, “Composition for the prevention and treatment of the detrimental effects of dihydrotestosterone” (priority 2004, published 2006).
# Legend:
# [1] = system: localized prostate cancer; conditions: 15 mg twice per day orally, 3 weeks
# prostate = conditions: rats, in combination with finasteride
# cancer = conditions: in vivo
# advanced prostate cancer = conditions: men with most dietary selenium versus lowest intake
# prostate cancer = conditions: 200 μg daily for 4.5 years
structure (smiles),measurement,setting,value
CC(C)=CCC/C(C)=C/C=C/C(C)=C/C=C/C(C)=C/C=C/C=C(C)/C=C/C=C(C)/C=C/C=C(\C)CCC=C(C)C [lycopene],metastasis,[1]; biopsy,reduced metastasis
same,regression and malignancy,[1]; biopsy,signs of regression and reduced malignancy
same,tumor size,[1]; biopsy,smaller tumors
same,PSA,[1]; versus no intervention,significant reduction
O=c1c(O)c(-c2ccc(O)c(O)c2)oc2cc(O)cc(O)c12 [quercetin],prostate weight,prostate,reduce prostate weight
[Se] [selenium],reduction of cancer mortality and morbidity,cancer,approximately 50%
same,"risk of lung, prostate and colon cancer",cancer,reduced significantly
same,fewer cases of advanced prostate cancer,advanced prostate cancer,65%
same,skin cancer,prostate cancer,no changes
same,"total, colorectal and lung cancer",prostate cancer,significant benefits
same,reduction in the incidence of prostate cancer (secondary endpoint),"prostate cancer; 6.5 years follow-up, 974 men",63%
same,number that developed prostate cancer,prostate cancer; placebo group 35,13
